Results as given in patent publication US12221449B2, “Pyrrolopyrimidine derivative and use thereof” (WUHAN HUMANWELL INNOVATIVE DRUG RESEARCH AND DEVELOPMENT …, priority 2019, dated 2025).
In brackets after ≈: the same amount, converted by molar mass. Like-named read-outs stand apart in the source and are kept apart here.

Legend:
[1] = Pharmacokinetic test in rats; type: in vivo, male SD rats
Method: (§1) For the in vivo pharmacokinetic test of rats, 6 male SD rats were used, 180-240 g, fasted overnight. […] The blood samples were centrifuged at 8,000 rpm at 4° C. for 6 min, and plasma was collected and stored at −20° C. The plasma at each time point was taken and added with an acetonitrile solution containing internal standard in 3-5 times the amount, vortexed and mixed for 1 min, and centrifuged at 13,000 rpm at 4° C. for 10 min. The supernatant was collected, added and mixed with water in 3 times the amount. An appropriate amount of the mixture was taken for LC-MS/MS analysis. The main pharmacokinetic parameters were analyzed using WinNonlin 7.0 software with non-compartmental model.

[2] = biological target: ATX enzyme activity in human plasma (Homo sapiens (Human), UniProt Q13822); test: Inhibition test of ATX enzyme activity in human plasma (LPA18:2 formation); type: biochemical; details: 37° C., 3 h
Method: Whole blood was collected from healthy volunteers and anticoagulated with heparin. The blood collection tubes were centrifuged at 3,000 rpm for 10 min, and the plasma was taken and stored at −80° C. for use.
The compound was serially diluted with DMSO according to the conventional concentration requirements, and then 3 μL of the diluted compound was added to a 96-well plate, and 147 μL of PBS was added to each well containing 3 μL of the compound. After mixing homogenously, 50 μL of the mixture was removed and added to a new 96-well plate. The human plasma was taken out from the −80° C. refrigerator and thawed through rapid shaking in a 37° C. water bath. 50 μL of the human plasma was taken and added to the 96-well plate containing 50 μL of the diluted compound (the final system was 1% DMSO). The group without the compound was set as the positive control group. The 96-well plate was shaken and mixed uniformly, and incubated at 37° C. for 3 h. A blank group was also provided, and the plasma of the blank group was stored at −80° C. The blank group is provided to determine the baseline concentration of endogenous LPA.
After the incubation was finished, the blank group was thawed on ice and transferred to an incubation plate. Excess acetonitrile containing the internal standard LPA17:0 was added to the incubation plate to precipitate the plasma protein. After vortex centrifugation, the supernatant was taken and diluted, and a peak area of LPA18:2 and a peak area of internal standard LPA17:0 were detected using LC-MSMS mass spectrometry.
According to the inhibition rates of different concentrations of the compound, the IC50 value of the compound, which is related to inhibition of ATX enzyme activity in human plasma, was calculated.

[3] = Human liver microsome stability test; type: in vitro ADME; details: human liver microsomes; for Remaining percentage (%) of compound after incubation for 30 min: 37° C., NADPH; for half-life at 1 µM: human
Method: The human liver microsome stability test was performed by incubating the compound and human liver microsomes in vitro. First, the test compound is prepared as a 10 mM stock solution in DMSO solvent, and then the compound was diluted to 0.5 mM with acetonitrile. Human liver microsomes (Corning) were diluted with PBS and prepared as a microsome/buffer solution, which was used to dilute 0.5 mM of the compound into a working solution. […] A deep-well multiwell plate was taken, 30 μL of the working solution and 15 μL of pre-warmed NADPH solution (6 mM) were sequentially added to each well to initiate a reaction, and the reaction was incubated at 37° C. […] After centrifugation, the supernatant was collected, and added with purified water in a ratio of 1:1 to perform LC-MS/MS detection. […] T1/2 was calculated by using Excel.

[4] = Pharmacokinetic test in mice; type: in vivo, male ICR mice
Method: as §1
For the in vivo pharmacokinetic test of mice, 18 male ICR mice were used, 20-25 g, fasted overnight. Among them, 9 mice were orally administered by gavage (10 mg/kg), bloods of 3 mice were collected at each blood collection time point, and the bloods of the 9 mice were alternately collected. The other 9 mice were intravenously administered with the compound (1 mg/kg), bloods of 3 mice were collected at each blood collection time point, and the bloods of the 9 mice were alternately collected. The rest operations were the same as that of pharmacokinetic test in rats.

[5] = biological target: hERG channels (CHO cell line stably expressing hERG) (Homo sapiens (Human), UniProt Q12809); test: Inhibitory effect on hERG by full-automatic electrophysiological patch clamp QPatch; type: cell-based; details: for IC50: CHO hERG cells, QPatch; for hERG IC50/ATX IC50: ratio of hERG IC50 (μM) to ATX IC50 (nM)
Sequence of hERG channels (CHO cell line stably expressing hERG) (Q12809 whole entry): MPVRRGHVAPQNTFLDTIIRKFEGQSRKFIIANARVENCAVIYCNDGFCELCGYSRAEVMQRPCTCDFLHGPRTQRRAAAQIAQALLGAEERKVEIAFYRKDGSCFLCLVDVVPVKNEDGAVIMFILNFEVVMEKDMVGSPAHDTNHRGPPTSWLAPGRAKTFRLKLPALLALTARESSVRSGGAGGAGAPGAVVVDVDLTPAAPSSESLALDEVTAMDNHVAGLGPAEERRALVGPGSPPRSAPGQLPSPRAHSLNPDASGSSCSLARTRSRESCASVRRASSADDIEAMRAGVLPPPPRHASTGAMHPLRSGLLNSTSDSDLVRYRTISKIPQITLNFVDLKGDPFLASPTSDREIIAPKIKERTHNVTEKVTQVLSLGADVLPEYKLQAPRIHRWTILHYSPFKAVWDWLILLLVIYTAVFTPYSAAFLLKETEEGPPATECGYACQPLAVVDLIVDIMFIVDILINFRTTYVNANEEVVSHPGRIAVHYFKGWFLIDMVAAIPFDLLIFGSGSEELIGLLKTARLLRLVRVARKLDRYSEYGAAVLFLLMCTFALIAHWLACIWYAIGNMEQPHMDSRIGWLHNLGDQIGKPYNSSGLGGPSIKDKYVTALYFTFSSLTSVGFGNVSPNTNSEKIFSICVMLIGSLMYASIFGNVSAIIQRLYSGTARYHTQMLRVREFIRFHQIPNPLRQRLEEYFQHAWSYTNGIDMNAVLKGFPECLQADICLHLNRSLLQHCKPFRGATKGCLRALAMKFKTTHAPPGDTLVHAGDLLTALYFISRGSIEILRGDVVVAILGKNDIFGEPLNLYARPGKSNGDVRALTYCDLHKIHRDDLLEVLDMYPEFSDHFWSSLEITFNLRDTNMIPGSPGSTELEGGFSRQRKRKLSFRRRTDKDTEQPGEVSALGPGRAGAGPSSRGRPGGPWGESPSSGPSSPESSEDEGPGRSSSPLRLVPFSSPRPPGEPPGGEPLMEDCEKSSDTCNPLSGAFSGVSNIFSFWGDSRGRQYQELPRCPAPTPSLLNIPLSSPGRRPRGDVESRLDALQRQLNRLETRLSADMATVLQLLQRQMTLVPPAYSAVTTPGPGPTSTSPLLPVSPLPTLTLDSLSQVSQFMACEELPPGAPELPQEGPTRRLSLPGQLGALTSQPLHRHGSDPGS
Method: Full-automatic electrophysiological patch clamp QPatch was used to detect the inhibitory effect of compounds on hERG. Cells used in this test were CHO cell line transfected with cDNA of hERG and stably expressing hERG channels (provided by Sophion Bioscience, Denmark), and the cell passage number was P24. The cells were cultured in a medium containing the following components (all purchased from Invitrogen): Ham's F12 medium, inactivated fetal bovine serum (10% (v/v)), hygromycin B (100 μg/ml), and Geneticin (100 μg/ml). CHO hERG cells were grown in a petri dish containing the above-mentioned medium and cultured in an incubator at 37° C. and containing 5% Co2.
The compound to be tested was prepared as a 10 mM stock solution in DMSO solvent, the compound was diluted to 3 mM, 1 mM, 0.3 mM, and 0.1 mM with DMSO, and then the compound was diluted to 30 μM, 10 μM, 3 μM, 1 μM, 0.3 μM and 0.1 μM with the extracellular fluid, so that except that the final concentration of DMSO in the 30 μM compound was 0.3%, the final concentration of DMSO in compound solutions of all other concentrations was 0.1%.
The CHO hERG cells, after being digested and resuspended, were added to the fully automated QPatch system (Sophion, Denmark), and subjected to a test according to the following preset procedure.
After reaching the ruptured whole cell configuration state in the initial stage, the whole cell current was recorded at room temperature (about 25° C.), and the cells were recorded for at least 120 seconds in order to achieve stability. The stable cells were selected for the test. During the whole test, the cell patch clamp was at a voltage of −80 mV, the cell patch clamp voltage was depolarized to +20 mV to activate the hERG potassium channels, and after 2.5 seconds, the cell patch clamp voltage was at −50 mV to eliminate inactivation and generate outward tail current. The peak tail current was used as the value of the hERG current. The voltage mode described above was applied to the cells for electrophysiological tests every 15 seconds. An intracellular liquid containing 0.1% dimethyl sulfoxide (solvent) was added to the cells to establish a baseline, and then the current was allowed to stabilize for 3 min. After the compound solution was added, the cells were kept in the test environment until the effect of the compound reached a steady state or until reaching 4 min. In the test experiments with different concentration gradients of the compound, the compound was added to the clamped cells from low to high concentration. After the compound test was finished, the cells were washed with the extracellular fluid until the current returned to a stable state.
The test data were analyzed by Qpatch analysis software provided by Sophion, Excel, and Graphpad Prism.

[6] = Thermodynamic solubility test; type: physicochemical; details: for solubility: thermodynamic from solid
Method: The compound was accurately weighed, and the prepared phosphate buffer (pH 7.4), FeSSIF solution (pH 5.8) and FaSSGF solution (pH 1.6) were added to prepare a solution with a concentration of 4 mg/mL, which was shaken at 1,000 rpm for 1 hour, and then incubated overnight at room temperature. After the incubation, the solution was centrifuged at 12,000 rpm for 10 min to remove undissolved particles, and the supernatant was transferred to a new centrifuge tube. The supernatant was diluted appropriately, then added with an acetonitrile solution containing the internal standard, and quantified using a standard curve prepared with the same matrix.

Autotaxin (ATX) enzyme = Autotaxin (ATX) enzyme (Homo sapiens (Human), UniProt Q13822); test: Autotaxin (ATX) enzyme activity inhibition assay (Cayman Autotaxin Inhibitor Screening Assay Kit); type: biochemical; details: OD405, 37° C., 30 min; read-out: IC50, inhibitory activity on ATX activity
Method: Subsequently, the 8 concentrations were diluted with Autotaxin Assay buffer (1×) provided in the kit into 19× compound working solutions (DMSO content was 1.9%). The Autotaxin Assay Reagent (10×) was taken out and diluted by 10 times with Autotaxin Assay Buffer (1×). The Autotaxin Substrate was taken out, dissolved by adding 1.2 mL of Autotaxin Assay Buffer (1×), mixed evenly and stood at room temperature.

[7] = cited from earlier work; for probability of discontinuation due to serious adverse events: patients taking the drug, Maher et al. 2019
[8] = system: idiopathic pulmonary fibrosis model (IPF model) induced by bleomycin; test: IPF model induced by bleomycin in rats; type: in vivo, male BN rats; details: 30 mg/kg orally twice a day
Method: Using male BN rats, 180-240 g, idiopathic pulmonary fibrosis model (IPF model) was induced with a dose of 5 U/kg bleomycin. […] On the second day after the model was established, the animals were orally administered by gavage twice a day, where the administration group was administered with a dose of 30 mg/kg each time, and the solvent control group was administered with a blank solvent, and the administration continued for 21 days. During the administration, the body weight was weighed every three days. On day 21 of administration, alveolar lavage was conducted 2 h after the first administration, the inflammatory cells in the lavage fluid were counted, and the associated biomarkers in the supernatant of the lavage fluid were detected. After lavage, the left lungs of the rats were fixed, and stained with Masson's trichrome staining to score the fibrosis pathology. The remaining lung lobes were cryopreserved. The supernatant of the alveolar lavage fluid and the freshly frozen lung tissue of the three compound groups were taken and detected for a content of TGF-β1 protein and an amount of total protein by using ELISA, and the amount of TGF-β1 per milligram of total protein was calculated.

[9] = male, SD, rat, plasma, intravenous administration 1 mg/kg
[10] = male, SD, rat, plasma, oral administration by gavage 10 mg/kg
[11] = male, ICR, mouse, plasma, intravenous administration 1 mg/kg
[12] = male, ICR, mouse, plasma, oral administration by gavage 10 mg/kg
[13] = FaSSGF solution, fassgf or other biorelevant, FaSSGF, pH 1.6, thermodynamic, read-out: Dissolubility FaSSGF (pH 1.6)
[14] = FeSSIF solution, FeSSIF, pH 5.8, thermodynamic, read-out: Dissolubility FeSSIF (pH 5.8)
[15] = phosphate buffered saline, aqueous buffer, PBS, pH 7.4, thermodynamic, read-out: Dissolubility PBS (pH 7.4)
[16] = day 21, compared with solvent control group, FIG. 2
[17] = intravenous administration 1 mg/kg
[18] = oral administration by gavage 10 mg/kg

## C[C@@H](OCCc1c[nH]nn1)C(=O)N1Cc2cnc(NC3Cc4ccccc4C3)nc2C1 [Compound I-1R, (R)-2-(2-(1H-1,2,3-triazol-4-yl)ethoxy)-1-(2-((2,3-dihydro-1H-inden-2-yl)amino)-5,7-dihydro-6H-pyrrolo[3,4-d]pyrimidin-6-yl)propan-1-one]
[1]; [9]
  AUC(0-t): 0.828 µg·h/mL
  clearance: 1.28 L/h/kg
  half-life: 25.8 min
[1]; male, SD, rat, plasma, intravenous administration 1 mg/kg, read-out: Vz
  Vd: 0.76 L/kg
[1]; [10]
  AUC(0-t): 6.33 µg·h/mL
  Cmax: 3.39 µg/mL
  Tmax: 30 min
  half-life: 151 min
[2]
  IC50: 0.012 µM
[3]
  Remaining percentage (%) of compound after incubation for 30 min: 86.0%
  half-life at 1 µM: 123 min
[4]; [11]
  AUC(0-t): 0.495 µg·h/mL
  clearance: 2.09 L/h/kg
  half-life: 22.2 min
[4]; male, ICR, mouse, plasma, intravenous administration 1 mg/kg, read-out: Vz
  Vd: 1.05 L/kg
[4]; [12]
  AUC(0-t): 6.12 µg·h/mL
  Cmax: 6.94 µg/mL
  Tmax: 25.2 min
  half-life: 40.2 min
[5]
  IC50: 22 µM
  hERG IC50/ATX IC50: 22.0/2.67 = 8.24
[6]; [13]
  solubility: 0.0885 mg/mL (≈ 211 µM)
[6]; [14]
  solubility: 0.0204 mg/mL (≈ 48.6 µM)
[6]; [15]
  solubility: 0.0204 mg/mL (≈ 48.6 µM)
Autotaxin (ATX) enzyme
  IC50: 0.00267 µM

## CC(Cc1cnn[nH]1)OCC(=O)N1Cc2cnc(NC3Cc4ccccc4C3)nc2C1 (racemic) [Compound I-2, 2-((1-(1H-1,2,3-triazol-5-yl)propan-2-yl)oxy)-1-(2-((2,3-dihydro-1H-inden-2-yl)amino)-5,7-dihydro-6H-pyrrolo[3,4-d]pyrimidin-6-yl)ethan-1-one]
Autotaxin (ATX) enzyme
  IC50: 0.00135 µM

## COC(=O)c1ccc2c(c1)NC(=O)/C2=C(\Nc1ccc(N(C)C(=O)CN2CCN(C)CC2)cc1)c1ccccc1 [Nintedanib]
[7]
  probability of discontinuation due to serious adverse events: 26.3%
[7]; patients
  incidence of gastrointestinal reactions: ≤ 50%

## C[C@H](Cc1cnn[nH]1)OCC(=O)N1Cc2cnc(NC3Cc4ccccc4C3)nc2C1 [Compound I-2R, (R)-2-((1-(1H-1,2,3-triazol-5-yl)propan-2-yl)oxy)-1-(2-((2,3-dihydro-1H-inden-2-yl)amino)-5,7-dihydro-6H-pyrrolo[3,4-d]pyrimidin-6-yl)ethan-1-one]
[1]; fraction of control compound's CL
  clearance rate (CL) relative to that of the control compound: about ¼
[1]; oral
  oral AUC0-t relative to that of the control compound: 4.2 times
  oral Cmax relative to that of the control compound: 6.1 times
[2]
  IC50: 0.00473 µM
[3]
  Remaining percentage (%) of compound after incubation for 30 min: 63.7%
  half-life at 1 µM: 53.6 min
[5]
  IC50: 9.48 µM
  hERG IC50/ATX IC50: 9.48/1.59 = 6.0
[6]; [13]
  solubility: 1.04 mg/mL (≈ 2470 µM)
[6]; [14]
  solubility: 0.26 mg/mL (≈ 620 µM)
[6]; [15]
  solubility: 0.107 mg/mL (≈ 255 µM)
[8]; 21 days, compared with control compound group, FIG. 1
  weight reduction of the animals: significantly less than that of the control compound group
[8]; [16]
  content of TGF-β1 in the freshly frozen lung tissue: significantly lower than those of the solvent control group
  content of TGF-β1 in the supernatant of the alveolar lavage fluid: significantly lower than those of the solvent control group

## C[C@H](OCCc1c[nH]nn1)C(=O)N1Cc2cnc(NC3Cc4ccccc4C3)nc2C1 [Compound I-1S, (S)-2-(2-(1H-1,2,3-triazol-4-yl)ethoxy)-1-(2-((2,3-dihydro-1H-inden-2-yl)amino)-5,7-dihydro-6H-pyrrolo[3,4-d]pyrimidin-6-yl)propan-1-one]
Autotaxin (ATX) enzyme
  IC50: 0.0286 µM

## Cc1ccc(=O)n(-c2ccccc2)c1 [Pirfenidone]
[7]
  probability of discontinuation due to serious adverse events: 20.9%

## O=C(COCCc1cnn[nH]1)N1Cc2cnc(NC3Cc4ccccc4C3)nc2C1 [Control compound, reference compound]
[1]; [17]
  T1/2: 27 min
[1]; [18]
  T1/2: 78.6 min
[3]
  T1/2: 24.1 min
  Remaining percentage (%) of compound after incubation for 30 min: 41.2%
[4]; [17]
  T1/2: 20.4 min
[4]; [18]
  T1/2: 49.8 min
[6]; FaSSGF, pH 1.6, thermodynamic
  Dissolubility FaSSGF (pH 1.6): 66.5 μg/mL
[6]; FeSSIF, pH 5.8, thermodynamic
  Dissolubility FeSSIF (pH 5.8): 18.3 μg/mL
[6]; PBS, pH 7.4, thermodynamic
  Dissolubility PBS (pH 7.4): 6.3 μg/mL
[6]; simulated gastric juice, simulated intestinal juice, neutral conditions
  thermodynamic solubility (in words): relatively poor

## CC(OCCc1c[nH]nn1)C(=O)N1Cc2cnc(NC3Cc4ccccc4C3)nc2C1 (racemic) [Compound I-1, 2-(2-(1H-1,2,3-triazol-4-yl)ethoxy)-1-(2-((2,3-dihydro-1H-inden-2-yl)amino)-5,7-dihydro-6H-pyrrolo[3,4-d]pyrimidin-6-yl)propan-1-one]
[3]
  Remaining percentage (%) of compound after incubation for 30 min: 87.4%
[5]
  IC50: 22.3 µM
  hERG IC50/ATX IC50: 22.3/4.24 = 5.26
Autotaxin (ATX) enzyme
  IC50: 0.00424 µM
